# Data from paper PMC10065276, “Enhanced therapeutic window for antimicrobial Pept-ins by investigating their structure-activity relationship” (PLOS ONE, 2023).
# Residues, ends and D or L forms follow the SMILES beside them.
# System: E. coli BL21
# Settings: BL21, 17 h
# How it was run: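 EUCAST broth microdilution in Mueller-Hinton medium; end-exponential culture diluted to 0.005 McF (~1.5x10^6 CFU/mL) before 1:1 mixing with two-fold peptide dilutions (0.75 to 100 μg/mL), triplicates.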
SMILES,BL21 MIC [µg/mL],other results
CC[C@H](C)[C@H](NC(=O)CNC(=O)[C@H](CC(C)C)NC(=O)[C@H](C)NC(=O)[C@@H]1CCCN1C(=O)[C@H](C)NC(=O)[C@H](CCCNC(=N)N)NC(=O)[C@H](CC(C)C)NC(=O)[C@H](C)NC(=O)[C@@H](NC(=O)[C@H](C)NC(=O)[C@@H](NC(=O)CNC(=O)[C@H](CC(C)C)NC(=O)[C@@H](N)CCCNC(=N)N)[C@@H](C)CC)C(C)C)C(=O)N[C@@H](C)C(=O)N[C@H](C(=O)N[C@@H](C)C(=O)N[C@@H](CC(C)C)C(=O)N[C@@H](C)C(=O)N[C@@H](CCCNC(=N)N)C(=O)O)C(C)C [Peptide P33_3R_4] (H-RLGIAVALRAPALGIAVALAR-OH),50.00,
CC(C)C[C@H](NC(=O)CNC(=O)[C@H](CCCNC(=N)N)NC(=O)[C@@H](NC(=O)CNC(=O)[C@H](C)NC(=O)[C@H](CCCNC(=N)N)NC(=O)[C@@H](NC(=O)[C@H](CC(C)C)NC(=O)[C@H](C)NC(=O)[C@H](CC(C)C)NC(=O)CNC(=O)[C@H](CC(C)C)NC(=O)CNC(=O)[C@@H](N)CCCNC(=N)N)C(C)C)C(C)C)C(=O)NCC(=O)N[C@@H](CC(C)C)C(=O)N[C@@H](C)C(=O)N[C@@H](CC(C)C)C(=O)N[C@H](C(=O)N[C@@H](C)C(=O)N[C@@H](CCCNC(=N)N)C(=O)O)C(C)C [Peptide P2_4R_GV] (H-RGLGLALVRAGVRGLGLALVAR-OH),6.25,MIC against E. coli BL21: 6.3 µg/mL
CC[C@H](C)[C@H](NC(=O)CNC(=O)[C@H](CC(C)C)NC(=O)[C@@H](N)CCCNC(=N)N)C(=O)N[C@@H](C)C(=O)N[C@H](C(=O)N[C@@H](C)C(=O)N[C@@H](CC(C)C)C(=O)N[C@@H](CCCNC(=N)N)C(=O)N[C@@H](CCCNC(=N)N)C(=O)N1CCC[C@H]1C(=O)N[C@@H](CCCNC(=N)N)C(=O)N[C@@H](CC(C)C)C(=O)N[C@@H](C)C(=O)N[C@H](C(=O)N[C@@H](C)C(=O)N[C@H](C(=O)N[C@@H](C)C(=O)N[C@@H](CC(C)C)C(=O)N[C@@H](CCCNC(=N)N)C(=O)N[C@@H](CCCNC(=N)N)C(=O)O)C(C)C)[C@@H](C)CC)C(C)C [Peptide P33-G14A] (H-RLGIAVALRRPRLAIAVALRR-OH),6.25,
CC[C@H](C)[C@H](NC(=O)CNC(=O)[C@H](CC(C)C)NC(=O)[C@H](CCCNC(=N)N)NC(=O)[C@@H]1CCCN1C(=O)[C@H](CCCNC(=N)N)NC(=O)[C@H](CCCNC(=N)N)NC(=O)[C@H](CC(C)C)NC(=O)[C@H](C)NC(=O)[C@@H](NC(=O)[C@H](C)NC(=O)[C@@H](NC(=O)CNC(=O)[C@H](CC(C)C)NC(=O)[C@@H](N)CCCNC(=N)N)[C@@H](C)CC)C(C)C)C(=O)N[C@@H](C)C(=O)N[C@@H](C)C(=O)N[C@@H](C)C(=O)N[C@@H](CC(C)C)C(=O)N[C@@H](CCCNC(=N)N)C(=O)N[C@@H](CCCNC(=N)N)C(=O)O [Peptide P33-V17A] (H-RLGIAVALRRPRLGIAAALRR-OH),6.25,
CC(C)C[C@H](NC(=O)CNC(=O)[C@H](CCCNC(=N)N)NC(=O)[C@@H]1CCCN1C(=O)[C@H](CCCNC(=N)N)NC(=O)[C@H](CCCNC(=N)N)NC(=O)[C@H](Cc1c[nH]cn1)NC(=O)[C@H](Cc1c[nH]cn1)NC(=O)[C@H](C)NC(=O)[C@H](CC(C)C)NC(=O)CNC(=O)[C@H](CC(C)C)NC(=O)CNC(=O)[C@@H](N)CCCNC(=N)N)C(=O)NCC(=O)N[C@@H](CC(C)C)C(=O)N[C@@H](C)C(=O)N[C@@H](Cc1c[nH]cn1)C(=O)N[C@@H](Cc1c[nH]cn1)C(=O)N[C@@H](CCCNC(=N)N)C(=O)N[C@@H](CCCNC(=N)N)C(=O)O [P2_zero_tango_3] (H-RGLGLAHHRRPRGLGLAHHRR-OH),>100.00,
CC[C@H](C)[C@H](NC(=O)CNC(=O)[C@H](CC(C)C)NC(=O)[C@H](CCCNC(=N)N)NC(=O)[C@@H]1CCCN1C(=O)[C@H](C)NC(=O)[C@H](CCCNC(=N)N)NC(=O)[C@H](CC(C)C)NC(=O)[C@H](C)NC(=O)[C@@H](NC(=O)[C@H](C)NC(=O)[C@@H](NC(=O)CNC(=O)[C@H](CC(C)C)NC(=O)[C@@H](N)CCCNC(=N)N)[C@@H](C)CC)C(C)C)C(=O)N[C@@H](C)C(=O)N[C@H](C(=O)N[C@@H](C)C(=O)N[C@@H](CC(C)C)C(=O)N[C@@H](C)C(=O)N[C@@H](CCCNC(=N)N)C(=O)O)C(C)C [Peptide P33_4R_4] (H-RLGIAVALRAPRLGIAVALAR-OH),12.50,
CC(C)C[C@H](NC(=O)CNC(=O)[C@H](CCCNC(=N)N)NC(=O)[C@@H]1CSSC[C@H](NC(=O)[C@@H](NC(=O)[C@H](CC(C)C)NC(=O)[C@H](C)NC(=O)[C@H](CC(C)C)NC(=O)CNC(=O)[C@H](CC(C)C)NC(=O)CNC(=O)[C@@H](N)CCCNC(=N)N)C(C)C)C(=O)N[C@@H](CCCNC(=N)N)C(=O)N[C@@H](CCCNC(=N)N)C(=O)N2CCC[C@@H]2C(=O)NCC(=O)N1)C(=O)NCC(=O)N[C@@H](CC(C)C)C(=O)N[C@@H](C)C(=O)N[C@@H](CC(C)C)C(=O)N[C@H](C(=O)N[C@@H](CCCNC(=N)N)C(=O)N[C@@H](CCCNC(=N)N)C(=O)O)C(C)C [Peptide P2_H12_pG],,"BL21 MIC, SS bond: 3.13 µg/mL; BL21 MIC, no SS bond: 6.25 µg/mL"
CC(C)C[C@H](NC(=O)CNC(=O)[C@H](CCCNC(=N)N)NC(=O)[C@@H]1CCCN1C(=O)[C@H](CCCNC(=N)N)NC(=O)[C@H](CCCNC(=N)N)NC(=O)[C@@H](NC(=O)[C@H](CC(C)C)NC(=O)[C@H](CC(=O)O)NC(=O)[C@H](CC(C)C)NC(=O)CNC(=O)[C@H](CC(C)C)NC(=O)CNC(=O)[C@@H](N)CCCNC(=N)N)C(C)C)C(=O)NCC(=O)N[C@@H](CC(C)C)C(=O)N[C@@H](CC(=O)O)C(=O)N[C@@H](CC(C)C)C(=O)N[C@H](C(=O)N[C@@H](CCCNC(=N)N)C(=O)N[C@@H](CCCNC(=N)N)C(=O)O)C(C)C [P2_zero_tango_5] (H-RGLGLDLVRRPRGLGLDLVRR-OH),>100.00,
CC(C)C[C@H](NC(=O)CNC(=O)[C@H](CCCNC(=N)N)NC(=O)[C@@H]1CCCN1C(=O)[C@H](CCCNC(=N)N)NC(=O)[C@H](CCCNC(=N)N)NC(=O)[C@@H](NC(=O)[C@H](CC(C)C)NC(=O)[C@H](C)NC(=O)[C@H](CC(C)C)NC(=O)CNC(=O)[C@H](CC(C)C)NC(=O)[C@H](C)NC(=O)[C@@H](N)CCCNC(=N)N)C(C)C)C(=O)NCC(=O)N[C@@H](CC(C)C)C(=O)N[C@@H](C)C(=O)N[C@@H](CC(C)C)C(=O)N[C@H](C(=O)N[C@@H](CCCNC(=N)N)C(=O)N[C@@H](CCCNC(=N)N)C(=O)O)C(C)C [Peptide P2_G2A] (H-RALGLALVRRPRGLGLALVRR-OH),6.25,
CC[C@H](C)[C@H](NC(=O)CNC(=O)[C@H](CC(C)C)NC(=O)[C@@H](N)CCCNC(=N)N)C(=O)N[C@@H](C)C(=O)N[C@@H](C)C(=O)N[C@@H](C)C(=O)N[C@@H](CC(C)C)C(=O)N[C@@H](CCCNC(=N)N)C(=O)N[C@@H](CCCNC(=N)N)C(=O)N1CCC[C@H]1C(=O)N[C@@H](CCCNC(=N)N)C(=O)N[C@@H](CC(C)C)C(=O)NCC(=O)N[C@H](C(=O)N[C@@H](C)C(=O)N[C@H](C(=O)N[C@@H](C)C(=O)N[C@@H](CC(C)C)C(=O)N[C@@H](CCCNC(=N)N)C(=O)N[C@@H](CCCNC(=N)N)C(=O)O)C(C)C)[C@@H](C)CC [Peptide P33-V6A] (H-RLGIAAALRRPRLGIAVALRR-OH),6.25,
